Measurements taken from BindingDB's records for doi:10.1021/jm0509703 (Takeda Pharmaceutical, 2006).

Key:
[1] = Inhibition of membrane fusion between HIV1 JR-FL Env-expressing COS7 cells and MOLT4/CCR5
[2] = Inhibition of replication of R5 HIV1 Ba-L in MOLT4/CCR5 cells

SMILES	IC50 [1] [nM]	IC50 [2] [nM]
CCCCOCCOc1ccc(-c2ccc3c(c2)C=C(C(=O)Nc2ccc([S+]([O-])Cc4nncn4CCC)cc2)CCCN3CC(C)C)cc1 (stereo not given)	0.19	
CCCCOCCOc1ccc(-c2ccc3c(c2)C=C(C(=O)Nc2ccc([S+]([O-])Cc4cncn4CCC)cc2)CCCN3Cc2cnn(C)c2)cc1 (stereo not given)	0.21	2.3
CCCCOCCOc1ccc(-c2ccc3c(c2)C=C(C(=O)Nc2ccc([S+]([O-])Cc4cncn4CCC)cc2)CCN3CC(C)C)cc1 (stereo not given) [7-(4-(2-butoxyethoxy)phenyl)-1-isobutyl-N-(4-((1-propyl-1H-imidazol-5-yl)methylsulfinyl)phenyl)-2,3-dihydro-1H-benzo[b]azepine-4-carboxamide]	1	5.3
CCCCOCCOc1ccc(-c2ccc3c(c2)C=C(C(=O)Nc2ccc([S+]([O-])Cc4cncn4CCC)cc2)CCCN3CCC)cc1 [(S)-(-)-8-{4-[2-(butoxy)ethoxy]phenyl}-1-propyl-N-(4-{[(1-propyl-1H-imidazol-5-yl)methyl]sulfinyl}phenyl)-1,2,3,4-tetrahydro-1-benzazocine-5-carboxamide]	0.24	1.4
CCCCOCCOc1ccc(-c2ccc3c(c2)C=C(C(=O)Nc2ccc([S+]([O-])Cc4nncn4CCC)cc2)CCCN3CCC)cc1 [(S)-(-)-8-{4-[2-(butoxy)ethoxy]phenyl}-1-propyl-N-(4-{[(4-propyl-4H-1,2,4-triazol-3-yl)methyl]sulfinyl}phenyl)-1,2,3,4-tetrahydro-1-benzazocine-5-carboxamide]	0.95	
CCCCOCCOc1ccc(-c2ccc3c(c2)C=C(C(=O)Nc2ccc([S+]([O-])Cc4cncn4CCC)cc2)CCCCN3CC(C)C)cc1 [(S)-(-)-9-{4-[2-(butoxy)ethoxy]phenyl}-1-isobutyl-N-(4-{[(1-propyl-1H-imidazol-5-yl)methyl]sulfinyl}phenyl)-2,3,4,5-tetrahydro-1H-1-benzazonine-6-carboxamide]	0.48	2.1
